The supplement of paper PMC11061612

Legend:
Test in all cases: combination Emax (second highest fraction inhibited in the dose matrix, 72 h); higher = more inhibition; extreme values may be limits of the assay
[1] = system: NCI-H2228 (Lung Adenocarcinoma)
In short: (§1)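 Cell lines in DMEM/F12 or RPMI with 10% FBS were plated in 1536-well plates, held 24 hours at 37°C, 5% CO2, then given two-drug dose matrices for 72 hours (DMSO typically 0.2%). Viability was read by CellTiter-Glo 2.0 luminescence and scaled as inhibition from 0 (vehicle wells) to 1 (blank wells). Combination Emax is the second-highest inhibition in the matrix; Bliss excess is observed combination effect minus expected EA + EB − EA·EB, EA and EB being single-agent effects.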

[2] = system: KYSE-140 (Esophageal Squamous Cell Carcinoma)
In short: as §1

[3] = system: JIMT-1 (Breast Carcinoma)
In short: as §1

[4] = system: UACC-812 (Breast Carcinoma)
In short: as §1

[5] = system: MDA-MB-436 (Breast Carcinoma)
In short: as §1

[6] = system: A204 (Rhabdomyosarcoma)
In short: as §1

[7] = system: HCC1428 (Breast Carcinoma)
In short: as §1

[8] = system: NCI-H1651 (Lung Adenocarcinoma)
In short: as §1

[9] = system: AU565 (Breast Carcinoma)
In short: as §1

[10] = system: SK-HEP-1 (Hepatocellular Carcinoma)
In short: as §1

[11] = system: SW620 (Colorectal Carcinoma)
In short: as §1

[12] = system: NCI-H1703 (Squamous Cell Lung Carcinoma)
In short: as §1

[13] = system: EW-7 (Ewing's Sarcoma)
In short: as §1

[14] = system: CA46 (Burkitt's Lymphoma)
In short: as §1

[15] = system: EPLC-272H (Other Solid Carcinomas)
In short: as §1

[16] = system: JHU-022 (Oral Cavity Carcinoma)
In short: as §1

[17] = system: NB13 (Neuroblastoma)
In short: as §1

[18] = system: CGTH-W-1 (Thyroid Gland Carcinoma)
In short: as §1

[19] = system: HCC70 (Breast Carcinoma)
In short: as §1

[20] = system: 5637 (Bladder Carcinoma)
In short: as §1

Structure (SMILES)	combination Emax [1]	combination Emax [2]	combination Emax [3]	combination Emax [4]	combination Emax [5]	combination Emax [6]	combination Emax [7]	combination Emax [8]	combination Emax [9]	combination Emax [10]	combination Emax [11]	combination Emax [12]	combination Emax [13]	combination Emax [14]	combination Emax [15]	combination Emax [16]	combination Emax [17]	combination Emax [18]	combination Emax [19]	combination Emax [20]
Cc1c2c(nn1C)CSCc1cc(n(C)n1)CSc1cc(c3ccccc3c1)OCCCc1c(C(=O)O)n(C)c3c-2c(Cl)ccc13 [AZD5991] + Cc1cc2ncnn2cc1Nc1ncc2c(n1)n(C1CCOCC1)c(=O)n2C [AZD7648] (first compound max 1 µM, 7x7, partner max 10 µM)	0.354	0.401	0.255	0.488	0.226	0.659	0.977	0.33	1	0.295	0.213	0.891	0.652	0.281	0.94	0.245	0.245	0.181	0.926	0.233
Cc1c2c(nn1C)CSCc1cc(n(C)n1)CSc1cc(c3ccccc3c1)OCCCc1c(C(=O)O)n(C)c3c-2c(Cl)ccc13 [AZD5991] + Cn1cnc2c(F)c(Nc3ccc(Br)cc3Cl)c(C(=O)NOCCO)cc21 [Selumetinib] (first compound max 1 µM, 7x7, partner max 3 µM)	0.249	0.439	0.284	0.579	0.152	0.459	0.977	0.218	1	0.311	0.643	0.856	0.271	0.0912	0.94	0.398	0.263	0.181	0.994	0.37
C[C@@H]1COCCN1c1cc(C2([S@](C)(=N)=O)CC2)nc(-c2ccnc3[nH]ccc23)n1 [AZD6738] + O=C(c1cc(Cc2n[nH]c(=O)c3ccccc23)ccc1F)N1CCN(C(=O)C2CC2)CC1 [Olaparib] (first compound max 10 µM, 7x7, partner max 10 µM)	0.523	0.744	0.598	0.351	0.349	0.417	0.261	0.729	0.449	0.498	0.57	0.847	0.929	0.412	0.824	0.563	0.947	0.386	0.722	0.726
COc1cccc2c1C(=O)c1c(O)c3c(c(O)c1C2=O)C[C@@](O)(C(=O)CO)C[C@@H]3O[C@H]1C[C@H](N)[C@H](O)[C@H](C)O1 [Doxorubicin] + Cc1cc2ncnn2cc1Nc1ncc2c(n1)n(C1CCOCC1)c(=O)n2C [AZD7648] (first compound max 1 µM, 7x7, partner max 10 µM)	0.742	0.442	0.697	0.296	0.504	0.925	0.168	0.712	0.733	0.872	0.787	0.932	0.889	0.777	0.539	0.858	0.923	0.749	0.488	0.546
COc1cccc(OCCCN)c1-c1cc(Nc2cnc(C#N)cn2)n[nH]1 [Prexasertib] + C=CCn1c(=O)c2cnc(Nc3ccc(N4CCN(C)CC4)cc3)nc2n1-c1cccc(C(C)(C)O)n1 [AZD1775] (first compound max 1 µM, partner max 1 µM)	0.719	0.959	0.869	0.662	0.599	0.648	0.688	0.822	0.891	0.65	0.853	0.985	0.962	0.757	0.914	0.624	0.935	0.765	0.955	0.924
COc1cccc(OCCCN)c1-c1cc(Nc2cnc(C#N)cn2)n[nH]1 [Prexasertib] + CCc1c2c(nc3ccc(O)cc13)-c1cc3c(c(=O)n1C2)COC(=O)[C@]3(O)CC [SN-38] (first compound max 1 µM, 7x7, partner max 0.3 µM)	0.821	0.945	0.87	0.604	0.693	0.678	0.797	0.879	0.949	0.761	0.975	0.971	0.96	0.837	0.922	0.756	0.962	0.832	0.944	1
COc1cccc(OCCCN)c1-c1cc(Nc2cnc(C#N)cn2)n[nH]1 [Prexasertib] + CN(C)CCCOc1ccc(-c2ccc3ncc4c(c3c2)n(C2CCOCC2)c(=O)n4C)cn1 [AZD0156] (first compound max 1 µM, 7x7, partner max 1 µM)	0.664	0.959	0.869	0.537	0.41	0.633	0.408	0.677	0.714	0.379	0.696	0.966	0.981	0.745	0.924	0.659	0.935	0.777	0.922	0.849
COc1cccc(OCCCN)c1-c1cc(Nc2cnc(C#N)cn2)n[nH]1 [Prexasertib] + C[C@@H]1COCCN1C2=NC(=NC(=C2)C3(CC3)[S@](=N)(=O)C)C4=C5C=CNC5=NC=C4 [AZD6738] (first compound max 1 µM, 7x7, partner max 10 µM)	0.643	0.959	0.857	0.542	0.473	0.534	0.378	0.722	0.633	0.462	0.744	0.97	0.971	0.599	0.942	0.627	0.943	0.711	0.908	0.845
COc1cccc(OCCCN)c1-c1cc(Nc2cnc(C#N)cn2)n[nH]1 [Prexasertib] + Cc1cc2ncnn2cc1Nc1ncc2c(n1)n(C1CCOCC1)c(=O)n2C [AZD7648] (first compound max 1 µM, 7x7, partner max 10 µM)	0.682	0.953	0.864	0.546	0.431	0.528	0.345	0.787	0.745	0.296	0.698	0.951	0.971	0.653	0.918	0.634	0.919	0.725	0.922	0.845
COc1cccc(OCCCN)c1-c1cc(Nc2cnc(C#N)cn2)n[nH]1 [Prexasertib] + O=C(c1cc(Cc2n[nH]c(=O)c3ccccc23)ccc1F)N1CCN(C(=O)C2CC2)CC1 [Olaparib] (first compound max 1 µM, 7x7, partner max 10 µM)	0.726	0.826	0.788	0.558	0.509	0.584	0.622	0.797	0.735	0.338	0.711	0.978	0.955	0.464	0.894	0.637	0.881	0.714	0.939	0.852
CCc1c2c(nc3ccc(O)cc13)-c1cc3c(c(=O)n1C2)COC(=O)[C@]3(O)CC [SN-38] + CN(C)CCCOc1ccc(-c2ccc3ncc4c(c3c2)n(C2CCOCC2)c(=O)n4C)cn1 [AZD0156] (first compound max 0.3 µM, 7x7, partner max 1 µM)	0.716	0.305	0.266	0.608	0.572	0.59	0.123	0.852	0.8	0.63	0.883	0.875	0.975	0.758	0.755	0.842	0.886	0.771	0.2	0.802
Cn1cnc2c(F)c(Nc3ccc(Br)cc3Cl)c(C(=O)NOCCO)cc21 [Selumetinib] + C=CCn1c(=O)c2cnc(Nc3ccc(N4CCN(C)CC4)cc3)nc2n1-c1cccc(C(C)(C)O)n1 [AZD1775] (first compound max 10 µM, partner max 1 µM)	0.453	0.683	0.6	0.138	0.311	0.276	0.211	0.574	0.644	0.315	0.731	0.944	0.806	0.635	0.857	0.529	0.794	0.0375	0.562	0.85
Cn1cnc2c(F)c(Nc3ccc(Br)cc3Cl)c(C(=O)NOCCO)cc21 [Selumetinib] + CC(C)n1c(=O)n(C)c2cnc3cc(F)c(-c4ccc(OCCCN5CCCCC5)nc4)cc3c21 [AZD1390] (first compound max 10 µM, 7x7, partner max 0.3 µM)	0.203	0.191	0.131	0.129	0.259	0.149	0.169	0.125	0.146	0.193	0.615	0.122	0.15	0.306	0.651	0.497	0.0733	0.044	0.268	0.236
